This is an account of results in patent publication US20120225852A1, “USE OF STEROID COMPOUNDS” (priority 2009, published 2012).

The conditions of series [1]: mitogen-induced proliferation, delayed-type hypersensitivity, mixed lymphocyte reaction; cited from earlier work.
For series [2] the following is noted: mice; cited from earlier work.
Series [3] relates to collagen-induced arthritis (CIA). The settings on record: cited from earlier work.
For the next series, the system named is naïve CD4+ T cells. Kind of series: Naive CD4+ T cells under Treg cell generating conditions. Type of series: cell-based. As to conditions: for proliferation: Treg cell generating conditions, 5 days, FIG. 39; for number of Foxp3+ Treg cells: rIL-2, with or even without rTGF-β1, 5 days, FIG. 38.
The subject of series [4] is Lymph node (LN) cells from unprimed DO11.10 TCR Tg mice. Kind of series: OVA-stimulated lymph node cell culture, T cell proliferation. As to conditions: for proliferation of the T cells that respond to the antigen: LN cells stimulated with OVA, vs control RPMI, FIG. 1; for effect on T cell responses in general: overall conclusion of Example 1 (FIGS. 1-4). Type of series: cell-based.

A further series relates to Naive CD4+ T cells. Description: Naive CD4+ T cells under Th17 cell polarizing conditions. The format is cell-based. As to conditions: for number of CD4+ IL-10-secreting T cells: among Th17 differentiating cells, 4 days, FIG. 37; for number of CD4+ IL-17-secreting T cells: and rIL-6, 4 days, vs RPMI, FIG. 36.
Series [5] concerns EAE in C57BL/6 Rag−/− recipients. Kind of series: Adoptive transfer of CD4+ T cells from treated EAE donors into C57BL/6 Rag-/- recipients. Type of series: in vivo, C57BL/6 Rag−/− mice.
The test system of series [6] is ongoing EAE in recipient mice. Kind of series: Adoptive transfer of DLN cells from treated EAE donors into recipients with ongoing EAE. The format is in vivo. An excerpt: The donor DLN cells were obtained on day 17, which is the peak of disease for control mice. This protection was observed until day 28-30 when the mice were euthanized.
In a further series the test system is EAE. Kind of series: EAE after cessation of 15 days of treatment, 45 additional days of monitoring. Type of series: in vivo, C57BL/6 mice. The text has this: The mice continued to be monitored daily for clinical signs of EAE for 45 additional days thereafter.
For series [7], the system named is response to OVA in EAE-induced mice. Description: EAE mice treated for 15 days, then immunized with OVA/CFA. Type of series: in vivo, C57BL/6 mice. Here is the method:
Treatment stopped and mice were then injected with OVA/CFA (Complete Freund's Adjuvant).
Instead, the response to a new antigen that the mice are exposed to is enhanced.

Series [8] relates to ongoing EAE in recipient mice. Kind of series: Adoptive transfer of CD4+ T cells from treated EAE donors into recipients with ongoing EAE. Type of series: in vivo.
Where [9] appears, read: oral, 50 mg/kg, beginning at onset of disease.

Take `C#C[C@]1(O)CC[C@H]2[C@@H]3[C@@H](O)C=C4C[C@@H](O)CC[C@]4(C)[C@H]3CC[C@@]21C` [HE3286]: in series [1], the “immune suppression in classical models” value is “not found to be immune suppressive”. Moreover, the oral bioavailability result in series [2] is reported as “up to 25%”. Moreover, in series [3] (associated with benefit), the “numbers and function of CD4+CD25+FOXp3+CD127-regulatory T cells (T reg)” value is reported as “increases”. In [3] (setting [9]), the CIA peak scores result was “significantly decreased” and the “daily severity of arthritis scores” value is reported as “significantly decreased”.

On to `C[C@]12CC[C@H](O)CC1=CCC1C2CC[C@@]2(C)C1CC[C@]21O[C@H]1CO` (stereo partly drawn) [BNN-124, (20S)-3β,21-dihydroxy-17β,20-epoxy-5-pregnene], for which, in the series with naïve CD4+ T cells, the proliferation entry is recorded as “increased” and the “number of Foxp3+ Treg cells” value is “significant increase”. In addition, in [4], the “proliferation of the T cells that respond to the antigen” value (“proliferation … to the antigen” below) is given as “significantly decreased” and the “effect on T cell responses in general” value is “immunosuppressive effect”. Further, in the series on Naive CD4+ T cells, the “number of CD4+ IL-10-secreting T cells” value was “significant increase” and the “number of CD4+ IL-17-secreting T cells” value is listed as “increase”.

Turning to `C[C@]12CC[C@H](O)CC1=CC[C@@H]1[C@@H]2CC[C@@]2(C)[C@H]1CC[C@@]21OC1CO` (stereo partly drawn) [BNN-93, 3β,21-dihydroxy-17α,20-epoxy-5-pregnene], in the series with naïve CD4+ T cells, the proliferation result is on record as “increased” and the “number of Foxp3+ Treg cells” value is “significant increase”. The “ex vivo proliferation to MOG35-55” value in [5] (DLN cells of Rag−/− recipients, FIG. 33a) is on record as “substantially decreased”. The “production of IFN-γ” value in [5] (DLN cells of Rag−/− recipients, FIG. 33b) was “decreased production”. Besides, the “production of IL-17” value in series [5] (DLN cells of Rag−/− recipients, FIG. 33c) is reported as “decreased production”. The “EAE scores induced in recipients” value in series [5] (after pertussis toxin injections, FIGS. 31 and 32) is “no disease”. For the same compound, in series [6] (DLN cell transfer, vs PBS-treated donors, FIG. 24), the recovery of recipients result is “rapid recovery”. In series [6] (DLN cell transfer, vs PBS-treated donors, FIG. 25), the “mean maximum disease score” value is given as “significant reduction”. Also, the “EAE development in recipients” value in [6] (DLN cells of donors treated days 12-17, vs DLN cells from PBS-treated donors, FIG. 24) was “confer suppression”. Besides, the “ex vivo proliferation to MOG35-55” value in [6] (DLN cells of recipients, FIG. 26a) is given as “significantly decreased”. Moreover, the “levels of supernatant IFN-γ” value in series [6] (DLN cells of recipients, FIG. 26b) is “decreased levels”. Also, the “levels of supernatant IL-17” value in series [6] (DLN cells of recipients, FIG. 26c) is on record as “decreased levels”. Moreover, the “recruitment of CD11c+ dendritic cells” value in series [6] (draining lymph nodes of recipients, FIG. 27a) was “substantially decreased”. The “recruitment of IL-17 secreting T cells” value in [6] (draining lymph nodes of recipients, FIG. 27b) was “substantially decreased”. In addition, in series [6] (draining lymph nodes of recipients, FIG. 27c), the “recruitment of CD4+ Foxp3+ regulatory T cells” value is reported as “increased”. Also, in [4], the “proliferation … to the antigen” value is given as “significantly decreased” and the “effect on T cell responses in general” value is given as “immunosuppressive effect”. Also, in the series on EAE (treated 15 days from around day 13, monitored 45 additional days, FIGS. 34 and 35), the “protection from EAE development after cessation of treatment” value is reported as “remained protected”. For the same compound, the “disease score after cessation of treatment” value in the series on EAE (treated 15 days, monitored 45 additional days, vs control mice) is reported as “remained unchanged”. In addition, in series [7] (after OVA/CFA immunization), the “production of IFN-γ” value was “increased”. For the same compound, the “T cell response to OVA ex vivo (3H-Thymidine incorporation)” value in [7] (after OVA/CFA immunization, FIG. 40) was “substantially increased”. Further, the “EAE phenotype after end of treatment and OVA/CFA injection” value in series [7] (in comparison to control mice) is “stable phenotype without any deterioration”. In [7] (treated 15 days from shortly after disease onset, then OVA/CFA), the “protection from EAE” value is given as “clearly protected”. In addition, in the series on Naive CD4+ T cells, the “number of CD4+ IL-10-secreting T cells” value is listed as “significant increase” and the “number of CD4+ IL-17-secreting T cells” value is listed as “increase”. In addition, in [8] (CD4+ T cell transfer into recipients with ongoing EAE, FIGS. 28 and 29), the “mean maximum EAE score” value is listed as “significant decrease”. Further, the “proliferation to MOG35-55 ex vivo” value in series [8] (DLN cells and splenocytes of recipients, FIG. 30) is “significantly decreased”.

As for `C[C@]12CC[C@H](O)CC1=CC[C@@H]1[C@@H]2CC[C@@]2(C)[C@H]1CC[C@@]21CO1` [BNN-50, 17β-spiro-[5-androsten-17,2′-oxiran]-3β-ol], in the series on naïve CD4+ T cells, the proliferation entry is on record as “increased” and the “number of Foxp3+ Treg cells” value was “significant increase”. In [4], the “proliferation … to the antigen” value is given as “significantly decreased” and the “effect on T cell responses in general” value is “immunosuppressive effect”. Further, in the series with Naive CD4+ T cells, the “number of CD4+ IL-10-secreting T cells” value is on record as “significant increase” and the “number of CD4+ IL-17-secreting T cells” value is reported as “increase”.
